Tests used:
PPARγ = target: T1, PPARγ (Homo sapiens, UniProt P37231); assay: Protease protection (partial trypsin digestion of 35S-PPARγ); type: binding; conditions: compound 10^−4M, increasing trypsin
T1 construct: a construct containing the entire cDNA of the human PPARγ2 (hPPARγ2); host or cells: cell-free coupled transcription/translation system
T1 sequence (P37231 1-505): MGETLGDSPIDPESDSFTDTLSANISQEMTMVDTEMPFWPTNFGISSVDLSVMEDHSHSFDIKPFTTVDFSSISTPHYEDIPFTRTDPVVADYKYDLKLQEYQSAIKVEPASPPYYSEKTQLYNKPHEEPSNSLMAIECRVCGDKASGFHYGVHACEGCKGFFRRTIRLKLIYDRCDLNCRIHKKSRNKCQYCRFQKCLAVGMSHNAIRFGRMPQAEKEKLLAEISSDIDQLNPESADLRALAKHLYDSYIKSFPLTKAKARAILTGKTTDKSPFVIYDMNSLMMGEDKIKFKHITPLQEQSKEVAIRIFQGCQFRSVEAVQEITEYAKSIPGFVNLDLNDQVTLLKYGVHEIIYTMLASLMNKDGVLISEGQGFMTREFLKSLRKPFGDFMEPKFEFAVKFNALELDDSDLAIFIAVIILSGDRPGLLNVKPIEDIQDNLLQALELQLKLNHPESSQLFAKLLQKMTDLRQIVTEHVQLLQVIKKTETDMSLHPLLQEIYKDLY
Protocol: The pSG5-hPPARγ2 plasmid was used to synthesize ? ^35S-radiolabeled PPARγ in a coupled transcription/translation system according to the protocol of the manufacturer (Promega, Madison, Wis.). The transcription/translation reactions were subsequently aliquoted into 22.5 μl and 2,5 μl of phosphate buffered saline +/− compound were added. The mixture was separated into 4.5 μl aliquots and 0.5 μl of distilled water or distilled water-solubilized trypsin were added. The protease digestion were allowed to proceed for 10 min at 25° C. and terminated by the addition denaturing loading buffer. After separation of the digestion products in a gel SDS ? PAGE 12% acrylamide, the gel was fixed in 10% acetic acid (v/v) 30% ethanol (v/v) ? for 30 min, treated in Amplify™ (Amersham, Orsay, France) and dried. The radiolabeled digestion products were visualized by autoradiography.

TNBS-treated Balb/c mice = assay: TNBS-induced colitis in Balb/c mice; type: in vivo; conditions: 50 mg/kg/day
Protocol: FIG. 9: F-L-Leu protects against colon inflammation in TNBS-treated Balb/c Mice. A: Ameho histologic scores (left panel) and survival rate (right panel) in TNBS-treated mice injected either with DMSO or F-L-Leu (50 mg/kg/day). B: TNFα and IL-1β mRNA levels in the colon of TNBS-treated mice injected with DMSO or F-L-Leu (50 mg/kg/day). Results are expressed as mean±SEM.
RNA was isolated from 3T3-L1 cells by the acid guanidinium ? thiocyanate/phenol/chloroform method (Chomczynski and Sacchi, 1987). Northern blot analysis of total cellular RNA was performed as described (Auwerx et al., 1989) ? Lipoprotein lipase (LPL), aP2 and 36B4 were used as probes (Graves et al., 1992 ? Laborda, 1991; Lefebvre et al., 1997). For RT-competitive PCR, total RNA (5-10 μg ? was reverse transcribed into complementary DNA (cDNA) (Desreumaux et al., 1999 ? Fajas et al., 1997). The RT reaction mixture was amplified by PCR using sense an ? antisense primers specific for β-actin, TNFα and IL-1β. The samples were subjected t ? 40 PCR cycles, consisting of denaturation for 1 min at 94° C., primer annealing for ? min at 52-58° C., and primer extension for 1.5 min at 72° C. using a Gene Amp PCR ? System 9700 (Perkin-Elner Corporation, Foster City, Calif.). The quantity of mRNA was expressed as the number of TNFα or IL-1β cDNA per β-actin cDNA molecules.
Male Balb/c mice (8 per group) were used for the colitis studies (Jackson laboratories, Bar Harbor, Me.). Colitis was induced by administration of 40 μl of a solution of TNBS (150 mg/kg, Fluka, Saint Quentin Fallavier, France) dissolved in NaCl 0.9% and mixed with an equal volume of ethanol (50% ethanol). This solution was administered intrarectally via a 3.5 F catheter (Ref EO 3416-1, Biotrol, Chelles, France) inserted 4 cm proximal to the anus in anesthesized mice [Xylasine (50 mg/kg of Rompun® 2%, Bayer Pharma, Puteaux, France) and Ketamine (50 mg/kg of Imalgene® 1000, Rhône Mérieux, France)]. Animals were sacrified by cervical dislocation under ether anesthesia two days after TNBS administration. The colon was quickly removed, opened, washed. A 2 cm colonic specimen located precisely 2 cm above the anal canal was dissected systematically in 4 parts. One part was fixed overnight in 4% paraformaldehyde acid at 4° C., dehydrated in alcohol and embedded in paraffin. Sections (5 μm) were then deparaffined with xylene and rehydrated by ethanol treatment. Stained sections with haematoxylin-eosin were examined blindly by a pathologist and scored according to the Ameho criteria (Ameho et al., 1997). The other parts of the colon were used for RNA isolation for the quantification of TNFα and IL1β mRNA expression.

3T3-L1 cells = assay: Adipocyte differentiation of 3T3-L1 cells (Northern blot, Oil Red O); type: cell-based, murine
Protocol: Confluent 3T3-L1 cells were incubated with 2 μM insulin, 1 μM dexamethasone, and 0.25 mM isobuthyl methyl xanthine for two days. […] A: RNA was isolated from 3T3-L1 cells after different times of differentiation induction. Blots were hybridized with 36B4 (to control for RNA loading); LPL or aP2 cDNAs. B: Cells were stained with Oil Red O after 6 days. LPL: lipoprotein lipase.
3T3-L1 cells (ATCC, Rockville, Md.) were grown to confluence in medium ? (Dulbecco's modified Eagle's Medium with 10% fetal calf serum, 100 units/n ? penicillin, and 100 μg/ml streptomycin). Confluent cells were incubated in medium ? containing 2 μM insulin, 1 μM dexamethasone, and 0.25 mM isobuthyl meth ? xanthine for two days. Then, the cells were incubated in medium A in presence ? absence of PPARγ y agonist for 4 days, changing the medium every 2 day ? Adipogenesis was evaluated by analysis of the expression of adipocyte-specif ? markers and by staining of lipids with Oil Red O (Chawla and Lazar, 1994).
Adipogenesis was monitored by analysis of lipoprotein lipase (LPL) and aP2 mRNA levels as markers of adipocyte differentiation and by studying morphological changes associated with the differentiation process.

PPARγ2 = target: T2, PPARγ2 (Homo sapiens, UniProt P37231); assay: Transient transfection, PPARγ2 reporter in CV1 cells; type: cell-based; parameters: a construct containing the entire cDNA of the human PPARγ2 (hPPARγ2); expressed in transfected cells; host or cells: Hep G2, RK13 or CV1 cells; conditions: simian renal cells CV1
T2 sequence (P37231 1-505): T1 sequence (P37231 1-505)
Protocol: RK13 cells (A and D), CV1 cells (B) or Hep G2 cells (C) were co-transfected with an expression vector for PPARγ2 (0.1 μg/well), pGL3-(Jwt)3TKLuc reported construct (0.5 μg/well), and pCMV-βGal (0.5 μg/well), as a control of transfection efficiency (0.5 μg/well). They were then grown during 24 h in the presence or absence of indicated compound. Activation is expressed as relative luciferase activity/β ? galactosidase activity. Each point was performed in triplicate, and each figure i ? representative of four independent experiments.
The CV1, RK-13, and Hep G2 cell lines were obtained from ATCC (Rockville, Md.). Cells were maintained in Dulbecco's modified Eagle's minimal essential medium (DMEM) supplemented with 10% fetal calf serum (FCS), L-glutamine, and antibiotics. Transfections with chloramphenicol acetyltransferase (CAT) or luciferase (luc.) reporter constructs were carried out exactly as described previously (Schoonjans et al., 1996). The pGL3-(Jwt)3TKLuc and the pGL3-(Jwt)3TKCAT reporter constructs contain both three tandem repeats of the J site of the apolipoprotein A-II promoter cloned upstream of the herpes simplex virus thymidine kinase (TK) promoter and the luciferase or the CAT reporter genes respectively (Vu-Dac et al., 1995). […]

[1] = 3T3-L1, 10^−5 M, extent close to rosiglitazone 10^−7 M

Protocol for db/db mice: Intraperitoneal glucose tolerance test (IPGTT) in C57BL/6j (A) or db/db (B) mice 10 to 12 weeks old (n=8).
All mice were maintained in a temperature-controlled (25° C.) facility with a strict 12 h ? light/dark cycle and were given free access to food (standard mice chow; DO4, UAR ? France) and water.
C57B1/6J and db/db mice (8 per group) were obtained through the Janvier laboratorie ? (Laval-Le Genest, France).

For CC(C)CC(NC(=O)OCC1c2ccccc2-c2ccccc21)C(=O)O [F-L-Leu, N-(9-fluroroenylmethyloxycarbonyl)-L-Leucine], the “protection of PPARγ from trypsin digestion (conformation change)” value (PPARγ) was “produced a protease protection”, the Ameho histologic score (TNBS-treated Balb/c mice) was “reduced significantly” and the “IL-1β mRNA levels in colon” value (TNBS-treated Balb/c mice) was “significant decrease”. The “TNFα mRNA levels in colon” value (TNBS-treated Balb/c mice) was “significant decrease”, the survival rate (TNBS-treated Balb/c mice; 4 days, two days after TNBS, control 76%) was 100% and the “LPL mRNA levels” value (3T3-L1 cells; [1]) was “significantly stimulated”. For the same compound, the “aP2 mRNA levels” value (3T3-L1 cells; [1]) was “significantly stimulated”, the “neutral lipid accumulation (Oil Red O staining)” value (3T3-L1 cells; 3T3-L1, 6 days, F-L-Leu 10^−5 M, rosiglitazone 10^−7 M) was “capable of inducing neutral lipid accumulation” and the “concentration required for optimal PPARγ activation” value (PPARγ2) was 10^−5 M. For the same compound, the “liver weight relative to control or rosiglitazone-treated mice” value (db/db mice; data not shown) was “tendency to diminution of the liver weight”, the “insulin sensitivity compared with an equivalent dose of rosiglitazone” value (db/db mice; db/db mice, 1 mg/kg/day as printed) was “improved insulin sensitivity more dramatically” and the “maximal glycemia in IPGTT” value (db/db mice; db/db, 10 mg/kg/day i.p., 7 days, DMSO control 500) was 420 mg/dL. The “time of maximal glucose level after glucose injection” value (db/db mice; db/db, 10 mg/kg/day, 7 days) was 20 min, the “time to decrease to normal (100 mg/dl) glucose values” (db/db mice; db/db, 10 mg/kg/day, 7 days) was at most 120 min and the “fasting serum insulin levels (mean)” value (db/db mice; db/db, 7 days treatment, DMSO group 180) was 70 μUI/mL.

Source: US20040082623A1, “Fmoc-l-leucine and derivatives thereof as ppar-gamma agonists” (priority 2003, published 2004)
